# Source: patent US8354447B2, “mGLU receptors antagonists for treating disorders associated with mGLU receptors including addiction and depression” (The Scripps Research Institute, priority 2002, dated 2013)
# Where a name gives a salt, the structure may show the parent alone. Read-outs that look alike come from different tables or passages of the source.
# Tests used:
# male Wistar rats [1] = tested on: male Wistar rats
# Source text: (§1) Animals were trained to respond according to a modification of the discrete-trial current-threshold procedure of Kornetsky and Esposito (Fed Proc 38:2473-2476, 1979), which has been described in detail previously (Markou and Koob, 1992 Physiol Behav 51:111-119). Briefly, a trial was initiated by the delivery of a non-contingent electrical stimulus. […] The current intensity delivered was adjusted for each animal and typically ranged from 50 to 200 μA. […] After a variable inter-trial interval (7.5-12.5 sec, average of 10 sec), another trial was initiated with the delivery of a non-contingent electrical stimulus. […] Responding during the inter-trial interval delayed the onset of the next trial by 12.5 sec. Current levels were varied in alternating descending and ascending series. A set of three trials was presented for each current intensity. Current intensities were altered in 5 μA steps. In each testing session, four alternating descending-ascending series were presented. […] The overall threshold of the session was defined as the mean of the thresholds for the four individual series. Each testing session was ˜30 min in duration. The latency between the onset of the non-contingent stimulus and a positive response was recorded as the response latency. The response latency for each test session was defined as the mean response latency of all trials during which a positive response occurred. After establishment of stable ICSS reward thresholds, rats were tested in the ICSS procedure once daily except for the spontaneous nicotine withdrawal experiment when rats were tested at time-points according to the experimental design.
# Systemic administration experiments. These experiments investigated whether nicotine withdrawal, as measured by elevations in ICSS thresholds, could be precipitated in nicotine-treated rats by systemic administration of an agonist at mGluII receptors (LY314582), an agonist at GABAB receptors (CGP44532), or antagonists at mGlu5 (MPEP), NMDA (MK-801) or AMPA/Kainate (NBQX) glutamate receptors. For each drug tested, rats were trained in the ICSS paradigm until stable baseline responding was achieved, defined as ≦10% variation in thresholds for 3 consecutive days and requiring approximately 14 days of daily testing. […] One group was then prepared with subcutaneous osmotic mini-pumps delivering vehicle and the second group with mini-pumps delivering 9 mg/kg/day nicotine hydrogen tartrate (3.16 mg/kg/day nicotine free base). There was a minimum seven-day interval after mini-pump implantation, during which ICSS reward thresholds continued to be measured daily, before the effect of any systemically administered drug on reward thresholds was evaluated.
# male Wistar rats [2] = test: ICSS thresholds after intra-ventral tegmental area LY314582; type: in vivo, rat
# Description: All injections were administered bilaterally in a volume of 0.5 μl/side given over 66 sec through 17 mm injectors. The injectors were connected to calibrated polyethylene-10 tubing preloaded with drug solution and protruded 3 mm below the ends of the cannulas into the VTA. After infusion, the injectors were kept in place for an additional 60 sec to allow for drug diffusion. Injectors were then removed and replaced with 14 mm wire stylets, and the animals then placed directly into the ICSS testing apparatus. Injections were made using a Harvard microinfusion pump (Model 975).
# After stable baseline ICSS responding was achieved (≦10% variation in threshold for 3 consecutive days), rats (n=15) with bilateral cannulas directed toward the VTA were allocated to two groups such that there were no differences in mean baseline reward thresholds or body weight between groups. […] Animals again were tested in the ICSS paradigm each day for seven days prior to drug treatment. […] There was a minimum 48 h interval between each injection, during which ICSS thresholds continued to be measured, to allow thresholds to return to baseline levels before further drug tests. At the conclusion of the experiment, all animals were anaesthetized and their brains removed and immediately placed on ice. The brains were cut in 50 μm sections, and placements of the injectors and the electrodes were examined (see FIG. 1 for histological verification of injection sites). Only those rats with injection tips located within the VTA were included in statistical analyses.
# drug-naïve rats = conditions: previous studies (Harrison et al., 2002; Macey et al., 2001); cited from earlier work
# Wistar rats = test: Nicotine self-administration under a fixed ratio schedule (LY341495, LY341495 and MPEP)
# male Wistar rats [3] = test: ICSS thresholds during spontaneous nicotine withdrawal; type: in vivo, rat; conditions: for ICSS reward thresholds: 1 mg/kg, 30 min before the 18 h time-point
# Source text: as §1
# Osmotic mini-pumps were surgically removed from nicotine-treated rats (n=15) (defined as rats having been prepared with mini-pumps delivering 3.16 mg/kg/day nicotine free-base for at least seven days) or corresponding control rats (n=17; rats prepared with vehicle-containing mini-pumps). All rats were then tested in the ICSS procedure at 12, 18, 24, 36, 48 and 72 hr after the removal of osmotic mini-pumps. These time points were chosen based on the time course of threshold elevations previously observed during spontaneous nicotine withdrawal after removal of nicotine-delivering osmotic mini-pumps (Harrison et al., 2001, Neuropsychopharmacology 25:55-71; K.L.). […] Thirty min before being tested at the 18 h time-point, one group of nicotine withdrawing and one group of control rats were injected with LY341495 (1 mg/kg); the remaining rats were injected with vehicle.
# male Wistar rats [4] = conditions: 5 mg/kg fluoxetine alone (Harrison et al. 2001); cited from earlier work
# male Wistar rats [5] = test: Brain stimulation reward (ICSS) under baseline conditions, paroxetine and p-MPPI; type: in vivo, rat
# Description: Male Wistar rats (Charles River, Hollister, Calif.) (300-320 g at the start of the experiments) were housed in pairs in a temperature and humidity controlled environment with a 12 hr light/dark cycle. Food and water were available ad libitum. A different set of subjects was used for each experiment. All subjects were treated in accordance with the National Institutes of Health “Guide for the Care and Use of Laboratory Animals,” and the animal facilities and the experimental protocols were in accordance with the Association for the Assessment and Accreditation of Laboratory Animal Care. Most of the behavioral testing was conducted during the light phase of the subjects' light/dark cycle, unless otherwise dictated by the experimental design due to time-course assessment of behavioral parameters. Apparatus The experimental apparatus consisted of 16 Plexiglas chambers (30.5×30×17 cm) (Med Associates Inc., St. Albans, Vt.) encased in sound-attenuating boxes (San Diego Instruments, San Diego, Calif.). Each operant chamber consisted of a stainless steel grid floor and a metal wheel manipulandum located on one wall, which required a 0.2 N force to rotate it a quarter turn. Gold-contact swivel commutators and bipolar leads connected the animals in the stimulation circuit (Plastics One, Roanoke, Va.). Brain stimulation was administered by constant current stimulators (Stimtek 1200, San Diego Instruments, San Diego, Calif.). […] During a 2 sec period immediately following a positive response, further responses were recorded as extra responses but had no consequence. If no response occurred during the 7.5 sec limited hold period a negative response was recorded. […] Thus, during each session, four current-thresholds were recorded and the mean of these values was taken as the current-threshold for each subject for each test session. Response Latency: The latency between the onset of the non-contingent stimulus and a positive response was recorded as the response latency. […]
# male Wistar rats [6] = test: Reward deficits during amphetamine withdrawal (ICSS thresholds, response latencies, body weight); conditions: for response latencies during withdrawal: 36 hr after the final amphetamine or saline injection; for return to baseline reward threshold levels before the amphetamine-withdrawing non-drug-treated rats: acute treatment prior to the 36 hr test, paroxetine 1.25 mg/kg, p-MPPI 3 mg/kg; for body weight during amphetamine withdrawal: amphetamine-exposed rats; for reward thresholds: saline-exposed animals, paroxetine 1.25 mg/kg or p-MPPI 3 mg/kg
# Description: Male Wistar rats (Charles River, Hollister, Calif.) (300-320 g at the start of the experiments) were housed in pairs in a temperature and humidity controlled environment with a 12 hr light/dark cycle. Food and water were available ad libitum. A different set of subjects was used for each experiment. All subjects were treated in accordance with the National Institutes of Health “Guide for the Care and Use of Laboratory Animals,” and the animal facilities and the experimental protocols were in accordance with the Association for the Assessment and Accreditation of Laboratory Animal Care. Most of the behavioral testing was conducted during the light phase of the subjects' light/dark cycle, unless otherwise dictated by the experimental design due to time-course assessment of behavioral parameters. Apparatus The experimental apparatus consisted of 16 Plexiglas chambers (30.5×30×17 cm) (Med Associates Inc., St. Albans, Vt.) encased in sound-attenuating boxes (San Diego Instruments, San Diego, Calif.). Each operant chamber consisted of a stainless steel grid floor and a metal wheel manipulandum located on one wall, which required a 0.2 N force to rotate it a quarter turn. Gold-contact swivel commutators and bipolar leads connected the animals in the stimulation circuit (Plastics One, Roanoke, Va.). Brain stimulation was administered by constant current stimulators (Stimtek 1200, San Diego Instruments, San Diego, Calif.). Surgical Procedure The rats were prepared with 11 mm stainless steel bipolar electrodes (Plastics One; diameter=0.25 mm) in the posterior lateral hypothalamus (AP −0.5 mm from bregma; L±1.7 mm; DV −8.3 mm from dura, with the incisor bar set at 5 mm above the interaural line; Pellegrino et al. 1979 under halothane anaesthesia (1-1.5% halothane/oxygen mixture). Subjects were allowed to recover for at least seven days before any behavioral testing. Half of the electrodes were positioned on the right hemisphere and the other half on the left hemisphere to counterbalance possible brain asymmetries. […] The subjects were initially trained to turn the wheel manipulandum on a fixed ratio 1 schedule of reinforcement. […] The current intensity delivered was adjusted for each animal and typically ranged from 100 to 200 μA. After successful familiarization with this procedure (2 sessions of 100 reinforcers in less than 20 minutes), the rats were gradually trained on a discrete-trial, current-threshold procedure. At the start of each trial rats received a non-contingent electrical stimulus. During the following 7.5 sec, the limited hold, if the subjects responded by turning the wheel manipulandum a quarter turn (positive response) they received a second, contingent stimulus identical to the previous non-contingent stimulus. During a 2 sec period immediately following a positive response, further responses were recorded as extra responses but had no consequence. If no response occurred during the 7.5 sec limited hold period a negative response was recorded. […] Stimulation intensities were varied according to the classical psychophysical method of limits. The subjects received four alternating series of ascending and descending current intensities starting with a descending series. Within each series the stimulus intensity was altered by 5 μA steps between each set of trials (three trials per set). After training in the above procedure, rats were tested until stable baseline thresholds had been achieved L+10% over a 5-day period). […] During the ascending series, the reverse situation defined the threshold. Thus, during each session, four current-thresholds were recorded and the mean of these values was taken as the current-threshold for each subject for each test session. Response Latency: The latency between the onset of the non-contingent stimulus and a positive response was recorded as the response latency. The response latency for each test session was defined as the mean response latency of all trials during which a positive response occurred. […]
# rats = conditions: single high dose 120-300 mg/kg orally, rats (Ryan et al. 2001); cited from earlier work
# [7] = Lemberger et al. 1985; Prakash and Foster 1999; cited from earlier work
smiles,measurement,setting,value
"NC1(C(=O)O)CCC2C(C(=O)O)C21 (racemic) [LY314582, 2-aminobicyclo(3.1.0)hexane-2,6-dicarboxylic acid]",ICSS reward thresholds,"male Wistar rats [1]; 7.5 mg/kg i.p., nicotine-treated rats, p<0.01",elevated reward thresholds in nicotine-treated rats compared to vehicle treatment
same,ICSS reward thresholds,"male Wistar rats [1]; 2.5-7.5 mg/kg intraperitoneal, nicotine-treated and control rats",elevated ICSS reward thresholds in nicotine-treated but not control rats
same,ICSS response Latencies,"male Wistar rats [1]; LY314582 2.5-7.5 mg/kg i.p., any dose tested",had no effect on response latencies in nicotine-treated or control rats
same,ICSS response Latencies,"male Wistar rats [2]; after VTA administration, nicotine-treated or control rats",had no effect on response latencies
same,ICSS reward thresholds,"male Wistar rats [2]; bilateral microinfusion into the VTA, 10-100 ng/side",significantly elevated reward thresholds in nicotine-treated but not control rats
same,ICSS reward thresholds,male Wistar rats [2]; intra-VTA 50 and 100 ng/side,sufficient to elevate reward thresholds in nicotine-treated rats without affecting thresholds in control rats
same,dose that elevated ICSS thresholds in drug-naïve rats,drug-naïve rats,≥ 10 mg/kg
"N[C@](CC1c2ccccc2Oc2ccccc21)(C(=O)O)[C@H]1C[C@@H]1C(=O)O [LY341495, 2S-2-amino-2-(1S,2S-2-carboxycyclopropan-1-yl)-3-(xanth-9-yl)propionic acid]",nicotine responding,"Wistar rats; 0.1, 0.5, 3 and 5 mg/kg LY341495",significantly decreased nicotine responding
same,decrease of nicotine self-administration,Wistar rats; LY341495 0.5 mg/kg,approximately 35%
same,nicotine self-administration,"Wistar rats; LY341495 0.5 mg/kg alone, p<0.05",significantly decreased nicotine self-administration
same,ICSS reward thresholds,male Wistar rats [3]; control rats,without affecting thresholds in control rats
same,ICSS reward thresholds,"male Wistar rats [3]; nicotine-withdrawing rats, p<0.001",significantly attenuated the elevations in reward thresholds in nicotine-withdrawing rats
same,ICSS response Latencies,male Wistar rats [3]; LY341495 1 mg/kg,had no effect on response latencies at any time-point after injection
CNCCC(Oc1ccc(C(F)(F)F)cc1)c1ccccc1 (stereo not drawn) [fluoxetine],duration of amphetamine withdrawal reward deficits,male Wistar rats [4],reduced the duration of the reward deficits
COc1ccccc1N1CCN(CCN(C(=O)c2ccc(I)cc2)c2ccccn2)CC1.Cl [p-MPPI],reward thresholds,"male Wistar rats [5]; p-MPPI 1, 3, 10 mg/kg alone",had no effect on reward thresholds
same,response latencies,male Wistar rats [5]; p-MPPI 1-10 mg/kg (Example 4.2),had no effect on response latencies
same,response latencies during withdrawal,male Wistar rats [6],had no effect on response latencies
same,return to baseline reward threshold levels before the amphetamine-withdrawing non-drug-treated rats,male Wistar rats [6],24 h
same,body weight during amphetamine withdrawal,male Wistar rats [6],appeared to gain weight similarly to vehicle-treated rats
same,reward thresholds,male Wistar rats [6],Neither paroxetine (FIG. 4A & 4D) nor p-MPPI (FIG. 20B and 20E) had an effect on thresholds of saline-exposed animals
"Fc1ccc([C@@H]2CCNC[C@H]2COc2ccc3c(c2)OCO3)cc1 [paroxetine, Paroxetine hydrochloride]",brain reward thresholds,"male Wistar rats [5]; paroxetine 1.25-10 mg/kg, 120 min before test",had no statistically significant effect on thresholds
same,response latencies during withdrawal,male Wistar rats [6],significantly slower than those of either vehicle or p-MPPI treated rats
same,return to baseline reward threshold levels before the amphetamine-withdrawing non-drug-treated rats,male Wistar rats [6],24 h
same,body weight during amphetamine withdrawal,male Wistar rats [6],did not gain weight during withdrawal
same,reward thresholds,male Wistar rats [6],Neither paroxetine (FIG. 4A & 4D) nor p-MPPI (FIG. 20B and 20E) had an effect on thresholds of saline-exposed animals
same,body weight and food consumption,rats,produces a reduction in body weight and food consumption
same,half-life,[7],approximately 24 hours
